Measured values as given in patent US7407946B2, “Quinazoline compounds” (AstraZeneca AB, priority 2002, dated 2008).

Key:
Aurora-A = biological target: T1, Aurora-A (Homo sapiens, UniProt O14965); test: In vitro Aurora-A kinase inhibition test; format: biochemical
T1 construct: 6 histidine residues, spacer region and rTEV protease cleavage site (pFastBac HTc) (N); made in house; host or cells: Spodoptera frugiperda Sf21 insect cells (baculovirus)
T1 sequence (O14965 1-403): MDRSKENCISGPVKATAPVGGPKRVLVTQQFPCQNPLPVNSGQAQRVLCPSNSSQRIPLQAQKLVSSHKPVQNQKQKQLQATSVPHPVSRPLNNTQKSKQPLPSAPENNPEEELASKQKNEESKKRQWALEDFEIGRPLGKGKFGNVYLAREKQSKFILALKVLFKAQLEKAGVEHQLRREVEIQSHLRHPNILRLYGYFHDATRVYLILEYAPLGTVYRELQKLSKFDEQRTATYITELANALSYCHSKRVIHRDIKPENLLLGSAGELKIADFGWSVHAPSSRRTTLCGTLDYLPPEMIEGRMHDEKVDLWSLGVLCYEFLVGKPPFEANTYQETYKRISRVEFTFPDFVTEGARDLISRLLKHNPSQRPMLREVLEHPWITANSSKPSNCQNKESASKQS

Aurora-B = biological target: T2, Aurora-B (Homo sapiens, UniProt Q96GD4); test: In vitro Aurora-B kinase inhibition test; format: biochemical; conditions: recombinant Aurora-B, [γ33P]ATP, peptide substrate, 60 minutes at room temperature; read-out: concentration giving 50% inhibition of enzyme activity
T2 construct: 6-histidine; made in house; host or cells: Spodoptera frugiperda Sf21 insect cells (baculovirus)
Text: (b) In Vitro Aurora-B Kinase Inhibition Test
This assay determines the ability of a test compound to inhibit serine-threonine kinase activity. DNA encoding Aurora-B may be obtained by total gene synthesis or by cloning. This DNA may then be expressed in a suitable expression system to obtain polypeptide with serine-threonine kinase activity. In the case of Aurora-B, the coding sequence was isolated from cDNA by polymerase chain reaction (PCR) and cloned into the pFastBac system in a manner similar to that described above for Aurora-A (i.e. to direct expression of a 6-histidine tagged Aurora-B protein).
For the large scale expression of Aurora-B kinase activity, Sf21 insect cells were grown at 28° C. in TC100 medium supplemented with 10% foetal calf serum (Viralex) and 0.2% F68 Pluronic (Sigma) on a Wheaton roller rig at 3 r.p.m. When the cell density reached 1.2×10^6 cells ml^−1 they were infected with plaque-pure Aurora-B recombinant virus at a multiplicity of infection of 1 and harvested 48 hours later. All subsequent purification steps were performed at 4° C. […]

SW620 = test: In vitro cell proliferation assay (BrdU incorporation); format: cell-based; conditions: Homo sapiens, SW-620; SW620, 48 hours with compound, 2 hour BrdU labelling; read-out: active at (concentration giving 50% inhibition of BrdU incorporation)
Text: (c) In Vitro Cell Proliferation Assay
This and other assays can be used to determine the ability of a test compound to inhibit the growth of adherent mammalian cell lines, for example the human tumour cell line SW620 (ATCC CCL-227). This assay determines the ability of at test compound to inhibit the incorporation of the thymidine analogue, 5′-bromo-2′-deoxy-uridine (BrdU) into cellular DNA. SW620 or other adherent cells were typically seeded at 1×10^5 cells per well in L-15 media (GIBCO) plus 5% foetal calf serum, 1% L-glutamine (100 μl/well) in 96 well tissue culture treated 96 well plates (Costar) and allowed to adhere overnight. […] The optical density of the wells was then determined at 690 nm wavelength using a Titertek Multiscan plate reader. […]

SW620 cells = test: In vitro cell cycle analysis assay; format: cell-based, human; conditions: 24 hours with compound, DNA content by FACS
Experimental: (d) In Vitro Cell Cycle Analysis Assay
This assay determines the ability of a test compound to arrest cells in specific phases of the cell cycle. Many different mammalian cell lines could be used in this assay and SW620 cells are included here as an example. SW620 cells were seeded at 7×10^5 cells per T25 flask (Costar) in 5 ml L-15 (5% FCS, 1% L-glutamine). Flasks were then incubated overnight in a humidified 37° C. incubator with 5% CO2. The following day, 5 μl of L-15 (5% FCS, 1% L-glutamine) carrying the appropriate concentration of test compound solubilised in DMSO was added to the flask. A no compound control treatments was also included (0.5% DMSO). The cells were then incubated for a defined time (24 hours) with compound. […]
Each sample was then syringed 10 times using 21-guage needle. The samples were then transferred to LPS tubes and DNA content per cell analysed by Fluorescence activated cell sorting (FACS) using a FACScan flow cytometer (Becton Dickinson). Typically 30,000 events were counted and recorded using CellQuest v1.1 software (Verity Software). Cell cycle distribution of the population was calculated using Modfit software (Verity Software) and expressed as percentage of cells with 2N (G0/G1), 2N-4N (S phase) and with 4N (G2/M) DNA content.

T2 sequence (Q96GD4 whole entry): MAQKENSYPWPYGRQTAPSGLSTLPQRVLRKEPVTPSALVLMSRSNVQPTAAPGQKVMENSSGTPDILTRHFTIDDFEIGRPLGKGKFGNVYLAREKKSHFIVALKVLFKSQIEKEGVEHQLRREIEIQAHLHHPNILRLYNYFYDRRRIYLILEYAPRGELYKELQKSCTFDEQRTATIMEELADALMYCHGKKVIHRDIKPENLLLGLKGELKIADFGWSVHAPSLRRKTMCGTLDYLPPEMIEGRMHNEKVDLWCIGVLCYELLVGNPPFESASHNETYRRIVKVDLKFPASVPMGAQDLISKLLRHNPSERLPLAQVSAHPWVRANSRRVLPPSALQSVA

Work on `COc1cc2c(Nc3ncc(CC(=O)Nc4cccc(F)c4)s3)ncnc2cc1OCCCN1CCC[C@@H]1COP(=O)(O)O` [Compound 2, ((2R)-1-(3-((4-((5-(2-((3-fluorophenyl)amino)-2-oxoethyl)-1,3-thiazol-2-yl)amino)-6-methoxyquinazolin-7-yl)oxy)propyl)pyrrolidin-2-yl)methyl dihydrogen phosphate] yielded an IC50 (Aurora-A) of 10.2 nM, an IC50 (Aurora-B) of 9 nM and an IC50 (SW620) of 6 nM. For the same molecule, the “active at (cell cycle analysis, arrest of cells in specific phases)” value (SW620 cells) was 20 nM.
